Patent US5955421A, “Peptides containing D-2-alkyl-Tryptophan” (priority 1990, dated 1999)
Like-named read-outs stand apart in the source and are kept apart here. Square brackets hold non-standard residues; d marks the D form. Peptide text beside a SMILES is read from it. dTrp(2-Me) = Cc1[nH]c2ccccc2c1C[C@@H](N)C(=O)O; Trp(2-Me) = Cc1[nH]c2ccccc2c1C[C@H](N)C(=O)O; GABA = NCCCC(=O)O

What was measured:
plasma testosterone = settings: dog, in vivo, sc
Experimental: The peptide of Example 3 was formulated in a polymeric PLGA implant in the form of rods which were about 1 cm long and 1 mm in diameter. These implants contained a loading of either 20 or 25% of the peptide (an amount of 7 or 10 mg), and were inserted subcutaneously into in male Beagle dogs which weighed between 10 and 12 kg.

[1] = test system: serum growth hormone and cortisol; assay: Oral capsule in healthy subjects, serum growth hormone and cortisol; assay type: in vivo, human; settings: 20 mg capsule, 5 healthy subjects
Experimental: A capsule containing 20 mg of the peptide of Example 18 was orally administered to 5 healthy subjects (3 men and 2 women, ages 30 to 66) and serum growth hormone and cortisol levels were measured at various times after administration.

Growth Hormone release = assay: GH release in 10-day old rats, s.c. 160 μg/kg; assay type: in vivo; settings: 160 μg/kg s.c.
Experimental: The peptides of Examples 4 and 5 were tested as Growth Hormone releasers in rats. GH released in a series of seven 10-day old rats, injected subcutaneously with a standard dose of 160 μg/kg and sacrificed 15 minutes after the injection.

[2] = test system: pituitary cell monolayers; assay: GH secretion of pituitary cell monolayers incubated with peptides; assay type: cell-based, rats; settings: 2 hours incubation
Experimental: (§1) Male Sprague Dawley rats (Charles River, Calco, Italy) of 2-3 months of age were used. Rats were housed at 22 +2° C., with lighting cycle of 14 h light: 10 h dark (lights on from 06.00 to 20.00 h), at least 10 days before starting the experiments. A standard dry diet and water were available ad libitum.
Pituitary tissue used for cell dissociation included only the anterior lobe. Briefly, pituitary glands were collected in sterile F-10 medium and after cutting into small fragments incubated twice (30 minutes each) at 37° C. in F-10 medium containing 6% fetal calf serum and collagenase (2.5 mg/ml) (Boehringer, Mannheim GmbH, Germany). Fragments were then washed in Dulbecco's PBS, Ca^2 + and Mg^2 + free medium and mechanically dissociated. Single cell suspension was planted onto 24-well (2×10^5 cells/well) culture plates. The cells were incubated in F-10 medium supplemented with 10% horse serum, 4% fetal calf serum and gentamycin (25 μg/ml), in a humidified atmosphere of 5% CO2 and 95% air at 37° C.
After 3 days, the medium was removed and the cells washed twice with serum free F-10, then incubated with 1 ml of F-10 containing 0.1% BSA only, or with added various concentrations of synthetic peptides.
After incubation for 2 h at 37° C., media were collected and stored frozen at -20° C. until assayed for measurement of GH content.
(§2) Medium and plasma GH was measured by radioimmunoassay using materials supplied by the NIADDK Bethesda, Md. Values were expressed in term of NIASSK-rat-GH-RP-2 standard (potency 2 IU/ml), as ng/ml of medium or plasma.
(§3) The minimum detectable value of rat was 1.0 ng/ml; intra-assay variability was 6%. To avoid inter-assay variation, samples from each experiment were assayed simultaneously.

GH release [3] = assay: Plasma GH after s.c. administration in male rats anesthetized with ketamine and xilazine; assay type: in vivo
Experimental: as §1
Between 09.00-10.00 h rats were anesthetized with ketamine (58 mg/kg, Inoketam, VIRBAC, Milano) and xilazine (12 mg/kg, Rompun, Bayer, Milano). Thirty minutes later, a blood sample ([…]) was withdrawn from the exposed jugular vein, peptides were injected intravenously or subcutaneously, and further blood samples were collected 10, 20 and 30 minutes later.
as §2, §3

rat = assay: Acute cardiovascular toxicity in the rat, single i.v. dose, mortality; assay type: in vivo; settings: for Dead rats/Total No of rats per group: observed up to 4 hours
Experimental: These two peptides were also tested for acute cardiovascular toxicity in the rat.
Dosages were calculated on the basis of the declared peptide content in each product, as specified below:
A single dose of HEXARELIN or GHRP-6 was administered to rats in different calendar dates in such a way that each group/dose should be treated in two subsequent days.
For each compound, appropriate amounts of solutions in 0.9% NaCl for injection were prepared just before treatment at the suitable concentrations. The solutions were sterilized by filtration (Millipore filter, pore size 0.22 μm). Owing to the type of the study (acute study) in which formulates were administered just after preparation, stability checks were not performed. Concentration checks were also not performed. The volume of solution injected was maintained constant at 1 ml/Kg.
The intravenous injections were done as a single dose in one vein of the tail with an appropriately gauged sterile, disposable, plastic syringe. The injection rate was about 0.1 ml/sec.
Periodical observations were made up to 4 hours after treatment. Abnormality and mortality were recorded. Body weight was recorded once during pre-trial and on the administration day to calculate the volumes to be injected.

growth hormone secretion = assay: Growth hormone secretion in young healthy male volunteers; assay type: in vivo, human; settings: young (20-30 years old) healthy male volunteers, various dosages, FIGS. 18-20
Experimental: The effects of HEXARELIN on growth hormone secretion in young (20-30 years old) healthy male volunteers were measured after the administration of various dosages.

Human heart tissue = assay: Inhibition of 125I-Tyr-Ala-HEXARELIN binding to human heart tissue membranes
Experimental: (§4) Tissue membranes (0.1 mg protein) obtained from the heart and hypothalamus of two different adult subjects were incubated in triplicate with a subsaturating concentration (34 pM, about 48,000 cpm, for heart tissue and 42 pM, about 60,000 cpm for hypothalamus tissue) of ^125 I-Tyr-Ala-HEXARELIN for 40 min at 0° C. in the absence and in the presence of increasing concentrations of the indicated unlabelled peptides. The value in parentheses represents the % of inhibition of ^125 I-Tyr-Ala-HEXARELIN specifically bound.
(§5) The specific binding of ^125 I-Tyr-Ala-HEXARELIN/0.1 mg membrane protein is expressed as a percent of total radioactivity added.

[4] = test system: Human hypothalamus tissue; assay: Inhibition of 125I-Tyr-Ala-HEXARELIN binding to human hypothalamus tissue membranes
Experimental: as §4, §5

GH release [5] = assay: Released GH in ten day-rats, s.c. (Table 9); assay type: in vivo; settings: 300 μg/kg s.c., 15 minutes, GH control 10 to 31 ng/ml depending on experiment
Experimental: In vivo activity of these compounds was determined in ten day-rats, which were subcutaneously injected (s.c.) with a dose of 300 μg/kg or with different doses in dose-response studies, according to the procedure as described in Deghenghi et. al, Life Sciences 54, 1321 (1994). The released GH was measured 15 minutes following compound administration.

[6] = Hydrophobicity comparison (FIG. 12); assay type: physicochemical
Text: FIG. 12 is a graphical comparison of the hydrophobicity of GHRP-6 and HEXARELIN;

[7] = mean of two subjects, read-out: mean IC50 value
[8] = subject 1, read-out: IC50 value
[9] = subject 2, read-out: IC50 value

## CCNC(=O)[C@@H]1CCCN1C(=O)[C@H](CCCNC(=N)N)NC(=O)[C@H](CC(C)C)NC(=O)[C@@H](Cc1c(C)[nH]c2ccccc12)NC(=O)[C@H](Cc1ccc(O)cc1)NC(=O)[C@H](CO)NC(=O)[C@H](Cc1c[nH]c2ccccc12)NC(=O)[C@H](Cc1c[nH]cn1)NC(=O)[C@@H]1CCC(=O)N1 [Example 3, Pyro-Glu-His-Trp-Ser-Tyr-D-2-alkyl-Trp-Leu-Arg-Pro-NHCH2 CH3]
Plasma testosterone
  clinical side effects: No clinical side effects were observed

## Cc1[nH]c2ccccc2c1C[C@H](NC(=O)[C@@H](Cc1c(C)[nH]c2ccccc12)NC(=O)[C@@H](Cc1c(C)[nH]c2ccccc12)NC(=O)CCCN)C(=O)N[C@@H](CCCCN)C(N)=O [Example 18, GAB-D-2-Mrp-D-2-Mrp-2-Mrp-Lys-NH2] (H-[GABA][dTrp(2-Me)][dTrp(2-Me)][Trp(2-Me)]K-NH2)
[1]
  cortisol levels: without cortisol stimulation

## Cc1[nH]c2ccccc2c1C[C@@H](NC(=O)[C@@H](N)Cc1cnc[nH]1)C(=O)N[C@@H](C)C(=O)N[C@@H](Cc1c[nH]c2ccccc12)C(=O)N[C@H](Cc1ccccc1)C(=O)N[C@@H](CCCCN)C(N)=O [Example 4, His-D-2-methyl-Trp-Ala-Trp-D-Phe-Lys-NH2] (H-H[dTrp(2-Me)]AW[dF]K-NH2)
Growth Hormone release
  activity as Growth Hormone releaser: very active
[2]; 10^-6 M
  GH-releasing activity: 558.0 ± 19.1 ng/well
[2]; 10^-7 M
  GH-releasing activity: 589.1 ± 17.9 ng/well
[2]; 10^-8 M
  GH-releasing activity: 557.8 ± 15.9 ng/well
GH release [3]; s.c. 600 μg/kg, 30 min
  plasma GH: 115.3 ± 19.1 ng/mL
GH release [3]; s.c. 150, 300 and 600 μg/kg, 10, 20 and 30 minutes
  GH-releasing effectiveness compared: more effective than GHRP-6 at all the considered times
rat; 5.0 mg/kg i.v. single dose
  Dead rats/Total No of rats per group: 0/6
rat; 7.5 mg/kg i.v. single dose
  Dead rats/Total No of rats per group: 1/6
rat; 10 mg/kg i.v. single dose
  Dead rats/Total No of rats per group: 2/6
rat; i.v. single dose, rat
  toxicity compared: less toxic than GHRP-6
Growth hormone secretion
  effect on growth hormone secretion: effective in vivo
Human heart tissue; 0.1 nM peptide, subject 1
  inhibition of 125I-Tyr-Ala-HEXARELIN specifically bound: 4%
  specific binding of 125I-Tyr-Ala-HEXARELIN: 20.1% of total radioactivity
Human heart tissue; 0.1 nM peptide, subject 2
  inhibition of 125I-Tyr-Ala-HEXARELIN specifically bound: 5%
  specific binding of 125I-Tyr-Ala-HEXARELIN: 22.8% of total radioactivity
Human heart tissue; 1 nM peptide, subject 1
  inhibition of 125I-Tyr-Ala-HEXARELIN specifically bound: 20%
  specific binding of 125I-Tyr-Ala-HEXARELIN: 16.9% of total radioactivity
Human heart tissue; 1 nM peptide, subject 2
  inhibition of 125I-Tyr-Ala-HEXARELIN specifically bound: 28%
  specific binding of 125I-Tyr-Ala-HEXARELIN: 17.3% of total radioactivity
Human heart tissue; 10 nM peptide, subject 1
  inhibition of 125I-Tyr-Ala-HEXARELIN specifically bound: 51%
  specific binding of 125I-Tyr-Ala-HEXARELIN: 10.4% of total radioactivity
Human heart tissue; 10 nM peptide, subject 2
  inhibition of 125I-Tyr-Ala-HEXARELIN specifically bound: 56%
  specific binding of 125I-Tyr-Ala-HEXARELIN: 10.5% of total radioactivity
Human heart tissue; 100 nM peptide, subject 1
  inhibition of 125I-Tyr-Ala-HEXARELIN specifically bound: 92%
  specific binding of 125I-Tyr-Ala-HEXARELIN: 1.7% of total radioactivity
Human heart tissue; 100 nM peptide, subject 2
  inhibition of 125I-Tyr-Ala-HEXARELIN specifically bound: 90%
  specific binding of 125I-Tyr-Ala-HEXARELIN: 2.4% of total radioactivity
Human heart tissue; 1000 nM peptide, subject 1
  inhibition of 125I-Tyr-Ala-HEXARELIN specifically bound: 100%
  specific binding of 125I-Tyr-Ala-HEXARELIN: 0% of total radioactivity
Human heart tissue; 1000 nM peptide, subject 2
  inhibition of 125I-Tyr-Ala-HEXARELIN specifically bound: 100%
  specific binding of 125I-Tyr-Ala-HEXARELIN: 0% of total radioactivity
Human heart tissue; [7]
  IC50: 9.5 nM
Human heart tissue; [8]
  IC50: 10.6 nM
Human heart tissue; [9]
  IC50: 8.3 nM
[4]; 0.1 nM peptide, subject 1
  inhibition of 125I-Tyr-Ala-HEXARELIN specifically bound: 3%
  specific binding of 125I-Tyr-Ala-HEXARELIN: 10.7% of total radioactivity
[4]; 0.1 nM peptide, subject 2
  inhibition of 125I-Tyr-Ala-HEXARELIN specifically bound: 4%
  specific binding of 125I-Tyr-Ala-HEXARELIN: 9.1% of total radioactivity
[4]; 1 nM peptide, subject 1
  inhibition of 125I-Tyr-Ala-HEXARELIN specifically bound: 16%
  specific binding of 125I-Tyr-Ala-HEXARELIN: 9.6% of total radioactivity
[4]; 1 nM peptide, subject 2
  inhibition of 125I-Tyr-Ala-HEXARELIN specifically bound: 19%
  specific binding of 125I-Tyr-Ala-HEXARELIN: 7.7% of total radioactivity
[4]; 10 nM peptide, subject 1
  inhibition of 125I-Tyr-Ala-HEXARELIN specifically bound: 51%
  specific binding of 125I-Tyr-Ala-HEXARELIN: 5.2% of total radioactivity
[4]; 10 nM peptide, subject 2
  inhibition of 125I-Tyr-Ala-HEXARELIN specifically bound: 67%
  specific binding of 125I-Tyr-Ala-HEXARELIN: 3.1% of total radioactivity
[4]; 100 nM peptide, subject 1
  inhibition of 125I-Tyr-Ala-HEXARELIN specifically bound: 89%
  specific binding of 125I-Tyr-Ala-HEXARELIN: 1.2% of total radioactivity
[4]; 100 nM peptide, subject 2
  inhibition of 125I-Tyr-Ala-HEXARELIN specifically bound: 93%
  specific binding of 125I-Tyr-Ala-HEXARELIN: 0.7% of total radioactivity
[4]; 1000 nM peptide, subject 1
  inhibition of 125I-Tyr-Ala-HEXARELIN specifically bound: 100%
  specific binding of 125I-Tyr-Ala-HEXARELIN: 0% of total radioactivity
[4]; 1000 nM peptide, subject 2
  inhibition of 125I-Tyr-Ala-HEXARELIN specifically bound: 100%
  specific binding of 125I-Tyr-Ala-HEXARELIN: 0% of total radioactivity
[4]; [7]
  IC50: 7 nM
[4]; [8]
  IC50: 8.9 nM
[4]; [9]
  IC50: 5 nM
GH release [5]
  GH released: 104.2 ± 13.1 ng/mL
[6]
  hydrophobicity: greater hydrophobicity than GHRP-6
